≈ marks a conversion by molar mass, not a printed value. Calls of active or inactive are those of the source. The rule behind the calls is not given here.
Experiments:
[1] = system: Staphylococcus aureus; assay: Antibacterial activity against Staphylococcus aureus ATCC6538 incubated for 18 to 20 hrs by double dilution method; type: functional; conditions: time 18-20 hrs
[2] = system: Staphylococcus aureus; assay: Antibacterial activity against methicillin-resistant Staphylococcus aureus ATCC2858 incubated for 18 to 20 hrs by double dilution method; type: functional; conditions: time 18-20 hrs
[3] = system: Escherichia coli; assay: Antibacterial activity against Escherichia coli incubated for 18 to 20 hrs by double dilution method; type: functional; conditions: time 18-20 hrs
[4] = system: Pseudomonas aeruginosa; assay: Antibacterial activity against Pseudomonas aeruginosa incubated for 18 to 20 hrs by double dilution method; type: functional; conditions: time 18-20 hrs
[5] = system: Candida albicans; assay: Antibacterial activity against Candida albicans ATCC10231 incubated for 18 to 20 hrs by double dilution method; type: functional; conditions: time 18-20 hrs
[6] = system: Staphylococcus aureus; assay: Antibacterial activity against methicillin-resistant Staphylococcus aureus clinical isolate ATCC0101 incubated for 18 to 20 hrs by double dilution method; type: functional; conditions: time 18-20 hrs
[7] = system: Staphylococcus aureus; assay: Antibacterial activity against methicillin-resistant Staphylococcus aureus clinical isolate ATCC05107 incubated for 18 to 20 hrs by double dilution method; type: functional; conditions: time 18-20 hrs
[8] = system: Staphylococcus aureus; assay: Antibacterial activity against methicillin-resistant Staphylococcus aureus clinical isolate ATCC10105 incubated for 18 to 20 hrs by double dilution method; type: functional; conditions: time 18-20 hrs
[9] = system: HepG2; assay: Cytotoxicity against human HepG2 cells assessed as cell survival rate at 50 uM incubated for 24 hrs by MTT assay relative to control; type: functional
[10] = system: HepG2; assay: Cytotoxicity against human HepG2 cells assessed as cell survival rate at 25 uM incubated for 24 hrs by MTT assay relative to control; type: functional
[11] = system: Staphylococcus aureus; assay: Antibiofilm activity against methicillin-resistant Staphylococcus aureus ATCC2858 assessed as biofilm eradication at 0.049 to 100 uM incubated for 24 hrs by crystal violet staining based assay; type: functional, organism-based; conditions: dose 0.049-100 µM
[12] = system: Staphylococcus aureus; assay: Antibiofilm activity against methicillin-resistant Staphylococcus aureus ATCC2858 assessed as minimal biofilm eradication concentration incubated for 24 hrs by crystal violet staining based assay; type: functional
[13] = system: Staphylococcus aureus; assay: Induction of drug resistance in methicillin-resistant Staphylococcus aureus ATCC2858 assessed as fold increase in MIC measured over 20 passage by broth dilution assay; type: functional; conditions: time 20.0 day
[14] = system: Staphylococcus aureus; assay: Antibacterial activity against methicillin-resistant Staphylococcus aureus ATCC2858 assessed as reduction in bacterial growth at 0.5 to 4 times of MIC measured after 4 to 8 hrs by time kill assay; type: functional, organism-based; conditions: time 4-8 hrs
[15] = system: Staphylococcus aureus; assay: Antibiofilm activity against methicillin-resistant Staphylococcus aureus ATCC2858 assessed as biofilm eradication incubated for 24 hrs by crystal violet staining based assay; type: functional, organism-based; conditions: dose 0.049-100 µM, DDE = dose-dependent effect
[16] = system: Cell membrane; assay: Induction of cell membrane damage in methicillin-resistant Staphylococcus aureus ATCC2858 at 2 times of MIC measured after 4 to 12 hrs by DAPI and propidium iodide staining based confocal laser scanning microscopy analysis; conditions: time 4-12 hrs
[17] = system: Staphylococcus aureus; assay: Induction of drug resistance in methicillin-resistant Staphylococcus aureus ATCC2858 assessed as fold increase in MIC measured after 19 passage by broth dilution assay; type: functional; conditions: time 19.0 day
[18] = Toxicity in overnight fasted ICR mouse assessed as change in appearance at 200 mg/kg, IG measured for 7 days; type: organism-based; conditions: in vivo, po, 168 h, time 7 day
[19] = Toxicity in overnight fasted ICR mouse assessed as change in activity at 200 mg/kg, IG measured for 7 days; type: organism-based; conditions: in vivo, po, 168 h, time 7 day
[20] = Toxicity in overnight fasted ICR mouse assessed as change in body weight at 200 mg/kg, IG measured for 7 days; type: organism-based; conditions: in vivo, po, 168 h, time 7 day
[21] = Hepatotoxicity in C57BL/6J mouse assessed as central necrosis at 200 mg/kg, po measured after 24 hrs by hematoxylin and eosin staining based immunohistochemical analysis; type: toxicity, organism-based; conditions: in vivo
[22] = Hepatotoxicity in C57BL/6J mouse assessed as steatosis in hepatic hilum at 200 mg/kg, po measured after 24 hrs by hematoxylin and eosin staining based immunohistochemical analysis; type: toxicity, organism-based; conditions: in vivo
[23] = system: Staphylococcus aureus; assay: Antibacterial activity against methicillin-resistant Staphylococcus aureus ATCC2858 infected in C57BL/6J mouse assessed as log reduction in bacterial titres in blood at 2 mg/kg, ip measured after 24 hrs; type: functional
[24] = system: Staphylococcus aureus; assay: Antibacterial activity against methicillin-resistant Staphylococcus aureus ATCC2858 infected in C57BL/6J mouse assessed as log reduction in bacterial titres in blood at 5 mg/kg, ip measured after 24 hrs; type: functional

| SMILES | MIC [1] [µM] | MIC [2] [µM] | MIC [3] [µM] | MIC [4] [µM] | MIC [5] [µM] | other results |
| --- | --- | --- | --- | --- | --- | --- |
| O=C(Nc1ccc(C(F)(F)F)cc1)Nc1ccc(Sc2nc3ccccc3s2)c(Cl)c1 | 0.39 (≈ 0.187 µg/mL) | 0.78 (≈ 0.374 µg/mL) | > 200 | > 200 | > 200 | MIC [6]: 0.78 µM (≈ 0.374 µg/mL); MIC [7]: 1.56 µM (≈ 0.749 µg/mL); MIC [8]: 1.56 µM (≈ 0.749 µg/mL); Activity [9]: 20%; Activity [10]: >75%; Activity [11]: Active; MBEC [12]: 5 µM |
| O=C(NCc1ccccc1Cl)Nc1ccc(Sc2nc3ccccc3s2)c(Cl)c1 | > 200 | > 200 | > 200 | > 200 | > 200 |  |
| O=C(Nc1ccc(Sc2nc3ccccc3s2)c(Cl)c1)N1CCSC1 | > 200 | > 200 | > 200 | > 200 | > 200 |  |
| CC1COc2c(N3CCN(C)CC3)c(F)cc3c(=O)c(C(=O)O)cn1c23 (stereo not drawn) [OFLOXACIN] | 0.78 (≈ 0.282 µg/mL) | 1.56 (≈ 0.564 µg/mL) | 0.39 (≈ 0.141 µg/mL) | 1.56 (≈ 0.564 µg/mL) |  | MBEC [12]: 3 µM |
| O=C(Nc1ccc(F)c(F)c1)Nc1ccc(Sc2nc3cc(Cl)ccc3s2)c(Cl)c1 | 0.39 (≈ 0.188 µg/mL) | 0.78 (≈ 0.376 µg/mL) | > 200 | > 200 | > 200 | fold change (FC) [13]: 64; MIC [6]: 1.56 µM (≈ 0.752 µg/mL); MIC [7]: 1.56 µM (≈ 0.752 µg/mL); MIC [8]: 0.78 µM (≈ 0.376 µg/mL); Activity [9]: 50%; Activity [10]: >75%; Activity [14]: Active; Activity [15]: Dde; MBEC [12]: 4 µM; Activity [16]: Active; fold change (FC) [17]: 256; Activity [18]: Non-Toxic; Activity [19]: Non-Toxic; Activity [20]: Non-Toxic; Activity [21]: Non-Toxic; Activity [22]: Non-Toxic; log(activity) [23]: 1.9; log(activity) [24]: 2.4 |
| O=C(Nc1ccccc1C(F)(F)F)N1CCC(Sc2nc3ccccc3s2)CC1 | 3.12 (≈ 1.37 µg/mL) | 3.12 (≈ 1.37 µg/mL) | > 200 | > 200 | > 200 |  |
| CO[C@@]1(NC(=O)Cc2cccs2)C(=O)N2C(C(=O)O)=C(COC(N)=O)CS[C@@H]21 [CEFOXITIN] | 25 (≈ 10.7 µg/mL) | 100 (≈ 42.7 µg/mL) | 50 (≈ 21.4 µg/mL) | > 200 |  |  |
| O=C(Nc1ccc(F)cc1)Nc1ccc(Sc2nc3ccccc3s2)c(Cl)c1 | 0.78 (≈ 0.335 µg/mL) | 1.56 (≈ 0.671 µg/mL) | > 200 | > 200 | > 200 |  |
| O=C(Nc1ccc(Sc2nc3ccccc3s2)cc1)Nc1ccc(F)c(F)c1 | 0.39 (≈ 0.161 µg/mL) | 0.78 (≈ 0.323 µg/mL) | > 200 | > 200 | > 200 | MIC [6]: 1.56 µM (≈ 0.645 µg/mL); MIC [7]: 3.12 µM (≈ 1.29 µg/mL); MIC [8]: 1.56 µM (≈ 0.645 µg/mL) |
| O=C(Nc1ccc(Br)cc1)Nc1ccc(Sc2nc3ccccc3s2)c(Cl)c1 | 0.78 (≈ 0.383 µg/mL) | 0.78 (≈ 0.383 µg/mL) | > 200 | > 200 | > 200 |  |
| O=C(Nc1ccc(Sc2nc3ccccc3s2)c(Cl)c1)Nc1ccc(Cl)cc1Cl | 0.78 (≈ 0.375 µg/mL) | 0.78 (≈ 0.375 µg/mL) | > 200 | > 200 | > 200 |  |
| CN1CCN(C(=O)Nc2ccc(Sc3nc4ccccc4s3)c(Cl)c2)CC1 | 100 (≈ 41.9 µg/mL) | 100 (≈ 41.9 µg/mL) | 200 (≈ 83.8 µg/mL) | 200 (≈ 83.8 µg/mL) | 200 (≈ 83.8 µg/mL) |  |
| O=C(Nc1ccc(Sc2nc3ccccc3s2)cc1)N1CCOCC1 | 200 (≈ 74.3 µg/mL) | 200 (≈ 74.3 µg/mL) | > 200 | > 200 | > 200 |  |
| O=C(Nc1ccc(Sc2nc3ccccc3s2)c(Cl)c1)N1CCCC1 | > 200 | > 200 | > 200 | > 200 | > 200 |  |
| O=C(Nc1ccc(Sc2nc3ccccc3s2)cc1)Nc1ccc(C(F)(F)F)cc1 | 0.39 (≈ 0.174 µg/mL) | 0.39 (≈ 0.174 µg/mL) | > 200 | > 200 | > 200 | MIC [6]: 0.78 µM (≈ 0.347 µg/mL); MIC [7]: 0.78 µM (≈ 0.347 µg/mL); MIC [8]: 0.39 µM (≈ 0.174 µg/mL); Activity [10]: >75%; Activity [14]: Active; Activity [11]: Active; MBEC [12]: 5 µM |
| O=C(Nc1ccc(Sc2nc3ccccc3s2)c(Cl)c1)N1CCOCC1 | > 200 | > 200 | > 200 | > 200 | > 200 |  |
| O=C(Nc1ccc(C(F)(F)F)cc1)Nc1ccc(Sc2nc3cc(Cl)ccc3s2)c(Cl)c1 | 0.39 (≈ 0.201 µg/mL) | 0.78 (≈ 0.401 µg/mL) | > 200 | > 200 | > 200 |  |
| O=C(Nc1ccc(Sc2nc3ccccc3s2)c(Cl)c1)Nc1ccccc1C(F)(F)F | 3.12 (≈ 1.5 µg/mL) | 3.12 (≈ 1.5 µg/mL) | > 200 | > 200 | > 200 |  |
| CN[C@H](CC(C)C)C(=O)N[C@H]1C(=O)N[C@@H](CC(N)=O)C(=O)N[C@H]2C(=O)N[C@H]3C(=O)N[C@H](C(=O)N[C@H](C(=O)O)c4cc(O)cc(O)c4-c4cc3ccc4O)[C@H](O)c3ccc(c(Cl)c3)Oc3cc2cc(c3O[C@@H]2O[C@H](CO)[C@@H](O)[C@H](O)[C@H]2O[C@H]2C[C@](C)(N)[C@H](O)[C@H](C)O2)Oc2ccc(cc2Cl)[C@H]1O [VANCOMYCIN] |  | 0.78 (≈ 1.13 µg/mL) |  |  |  | MIC [6]: 0.78 µM (≈ 1.13 µg/mL); MIC [7]: 1.56 µM (≈ 2.26 µg/mL); MIC [8]: 1.56 µM (≈ 2.26 µg/mL); MBEC [12]: 7 µM |
| CC(=O)NC[C@H]1CN(c2ccc(N3CCOCC3)c(F)c2)C(=O)O1 [LINEZOLID] | 3.12 (≈ 1.05 µg/mL) | 6.25 (≈ 2.11 µg/mL) | > 50 | > 50 |  |  |
